Measurements published in ChEMBL document CHEMBL1201862, “PubChem BioAssay data set” (2004).
The source made the active and inactive calls.

Assays:
[1] = system: HEK293; test: EBV LMP1 TES2 canonical NF-kB signalling blockers – cell-based, HEK293, luciferase, cherry-pick, dose response (AID 588343); format: functional; details: Homo sapiens
[2] = blockers of HIV-1 envelope-mediated cell-cell fusion – cherry-pick, dose response (AID 652057); format: functional, cell-based
[3] = HIV-1 AD8 envelope cell-cell fusion blockers – cherry-pick, dose response (AID 652062); format: functional, cell-based;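 further: luciferase signal from cell-cell fusion driven by HIV-1 clade B AD8 Env; potency is for inhibitors of fusion seen as a drop in luminescence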
[4] = blockers of HIV-1 ZM109 envelope-driven cell-cell fusion – HeLa effector, CEM target cells, luciferase, cherry-pick, dose response (AID 652058); format: functional, cell-based;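 further: luciferase signal from HIV-1 Env mediated cell-cell fusion of effector and target cells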
[5] = off-target signal loss in HeLa-CEM21 co-culture – HeLa F-luc CTL cells, cherry-picked, counter-screen for HIV-1 Env fusion inhibitor project, dose response (AID 652040); format: functional, cell-based;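 further: potency for signal decrease marking cytotoxic or nonspecific inhibition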
[6] = biological target: T1, Leucine aminopeptidase (Plasmodium falciparum 3D7, UniProt Q8IL11); test: P. falciparum M17LAP inhibitors, primary screen, biochemical, fluorogenic H-Leu-NHMec substrate, 1536-well (AID 1619); format: functional
T1 sequence (Q8IL11 whole entry): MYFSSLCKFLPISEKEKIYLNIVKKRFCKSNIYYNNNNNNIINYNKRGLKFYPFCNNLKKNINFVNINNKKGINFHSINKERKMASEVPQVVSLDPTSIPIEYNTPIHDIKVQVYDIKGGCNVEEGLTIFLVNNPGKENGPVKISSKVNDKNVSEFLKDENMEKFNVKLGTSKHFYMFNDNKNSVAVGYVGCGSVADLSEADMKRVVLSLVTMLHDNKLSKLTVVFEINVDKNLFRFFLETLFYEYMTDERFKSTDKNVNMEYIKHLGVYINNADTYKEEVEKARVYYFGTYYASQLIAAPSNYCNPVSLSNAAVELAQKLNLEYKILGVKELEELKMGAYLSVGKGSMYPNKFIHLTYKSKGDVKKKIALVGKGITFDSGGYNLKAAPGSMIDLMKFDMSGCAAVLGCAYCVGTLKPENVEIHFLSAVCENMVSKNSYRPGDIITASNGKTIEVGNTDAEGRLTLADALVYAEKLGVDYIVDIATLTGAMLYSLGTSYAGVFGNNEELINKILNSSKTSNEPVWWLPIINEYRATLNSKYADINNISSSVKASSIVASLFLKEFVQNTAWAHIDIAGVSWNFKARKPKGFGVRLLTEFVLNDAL

[7] = biological target: T2, Aminopeptidase N (Plasmodium falciparum FcB1/Columbia, UniProt O96935); test: malaria alanyl aminopeptidase activity blockers – biochemical, fluorogenic H-Leu-NHMec substrate, 1536-well (AID 1445); parameters: species or system Plasmodium falciparum 3D7, 3D7
T2 sequence (O96935 whole entry): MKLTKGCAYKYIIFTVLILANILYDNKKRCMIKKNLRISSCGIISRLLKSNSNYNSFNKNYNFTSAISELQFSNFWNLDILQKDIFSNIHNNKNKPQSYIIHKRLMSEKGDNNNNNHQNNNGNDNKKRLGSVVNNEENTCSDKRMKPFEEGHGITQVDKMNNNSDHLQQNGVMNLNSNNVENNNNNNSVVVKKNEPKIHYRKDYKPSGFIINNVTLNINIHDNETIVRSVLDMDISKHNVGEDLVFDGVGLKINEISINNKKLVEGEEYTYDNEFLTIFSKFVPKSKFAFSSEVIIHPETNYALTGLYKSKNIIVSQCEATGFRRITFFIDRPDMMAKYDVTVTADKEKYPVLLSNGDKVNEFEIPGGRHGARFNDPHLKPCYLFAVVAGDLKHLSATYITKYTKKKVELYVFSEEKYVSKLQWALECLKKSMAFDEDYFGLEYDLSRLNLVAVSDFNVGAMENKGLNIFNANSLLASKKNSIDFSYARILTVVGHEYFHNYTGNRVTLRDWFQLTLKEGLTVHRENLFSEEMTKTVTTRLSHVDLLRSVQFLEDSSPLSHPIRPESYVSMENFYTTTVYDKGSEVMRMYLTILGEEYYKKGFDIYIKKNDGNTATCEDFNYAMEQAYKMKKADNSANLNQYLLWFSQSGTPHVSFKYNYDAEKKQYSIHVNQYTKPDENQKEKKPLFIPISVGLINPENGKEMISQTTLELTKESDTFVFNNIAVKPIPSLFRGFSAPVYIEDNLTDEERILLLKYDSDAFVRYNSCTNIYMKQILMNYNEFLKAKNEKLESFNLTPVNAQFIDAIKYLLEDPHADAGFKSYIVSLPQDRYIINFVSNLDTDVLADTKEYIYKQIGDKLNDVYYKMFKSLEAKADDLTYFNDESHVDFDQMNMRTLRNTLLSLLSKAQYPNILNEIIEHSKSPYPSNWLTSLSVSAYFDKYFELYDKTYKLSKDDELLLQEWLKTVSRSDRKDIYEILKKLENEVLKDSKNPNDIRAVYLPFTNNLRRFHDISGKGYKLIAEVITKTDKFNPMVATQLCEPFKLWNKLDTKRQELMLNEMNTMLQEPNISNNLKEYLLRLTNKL

[8] = system: Streptococcus; test: GAS UMAA2166 growth inhibition – luminescence, BacTiterGlo, counter-screen for streptokinase expression inhibitor project, dose response (AID 1915); format: functional, organism-based;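 further: potency for reduction of bacterial viability or growth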
[9] = biological target: T3, Streptokinase A (Streptococcus pyogenes serotype M1, UniProt P10520); test: viability-normalized secreted streptokinase activity reduction – plasminogen activation absorbance, OD405, dose response (AID 1914); format: functional, Streptococcus pyogenes M1 GAS;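 further: secreted streptokinase activity via plasminogen activation per viability signal from cell pellet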
T3 sequence (P10520 whole entry): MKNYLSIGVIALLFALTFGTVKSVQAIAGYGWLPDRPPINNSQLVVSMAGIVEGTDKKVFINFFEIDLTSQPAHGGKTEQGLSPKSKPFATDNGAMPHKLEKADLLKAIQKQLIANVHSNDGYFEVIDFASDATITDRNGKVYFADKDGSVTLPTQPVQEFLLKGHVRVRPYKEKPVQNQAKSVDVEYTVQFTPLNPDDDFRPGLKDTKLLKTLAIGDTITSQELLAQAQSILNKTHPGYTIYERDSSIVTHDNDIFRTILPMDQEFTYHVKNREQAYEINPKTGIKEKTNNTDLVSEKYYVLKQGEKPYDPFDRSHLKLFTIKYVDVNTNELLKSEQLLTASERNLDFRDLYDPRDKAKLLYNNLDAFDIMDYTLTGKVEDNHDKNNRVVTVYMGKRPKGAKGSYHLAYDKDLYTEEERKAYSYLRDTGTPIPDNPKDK

[10] = biological target: T4, Long-chain-fatty-acid--AMP ligase FadD28 (Mycobacterium tuberculosis, UniProt P9WQ59); test: Fluorescence polarization aasay to screen for inhibitors that compete for the binding of FadD28 to a bisubstrate Measured in Biochemical System Using Plate Reader - 2147-01_Inhibitor_Dose_CherryPick_Activity.; format: functional, Mycobacterium tuberculosis H37Rv
T4 sequence (P9WQ59 whole entry): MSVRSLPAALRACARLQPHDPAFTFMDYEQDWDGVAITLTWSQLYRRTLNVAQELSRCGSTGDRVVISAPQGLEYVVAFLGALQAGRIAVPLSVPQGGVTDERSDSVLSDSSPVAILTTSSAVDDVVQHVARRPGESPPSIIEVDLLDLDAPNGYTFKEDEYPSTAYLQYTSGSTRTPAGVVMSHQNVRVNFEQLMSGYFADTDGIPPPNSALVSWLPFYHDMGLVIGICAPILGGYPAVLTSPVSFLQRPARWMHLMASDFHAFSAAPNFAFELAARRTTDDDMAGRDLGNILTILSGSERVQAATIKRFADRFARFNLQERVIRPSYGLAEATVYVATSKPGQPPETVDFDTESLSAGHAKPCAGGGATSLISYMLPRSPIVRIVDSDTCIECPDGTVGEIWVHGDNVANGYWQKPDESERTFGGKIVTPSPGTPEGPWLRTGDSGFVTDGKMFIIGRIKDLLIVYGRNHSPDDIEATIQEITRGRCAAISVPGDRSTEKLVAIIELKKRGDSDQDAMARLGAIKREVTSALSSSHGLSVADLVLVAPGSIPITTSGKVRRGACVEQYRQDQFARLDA

[11] = system: Streptococcus sp. 'group A'; test: Streptococcus pyogenes SK(-)GAS viability under kanamycin – luminescence, BacTiterGlo, confirmation, counter-screen for streptokinase expression inhibitor project, dose response (AID 1900); format: functional, organism-based
[12] = biological target: Protein Wnt-3a (Mus musculus, UniProt P27467); test: antagonism of Wnt3a pathway luciferase reporter – Wnt-LIGHT cells, luminescence, selectivity assay for Gli-SUFU antagonist project, dose response (AID 651570); format: functional; details: read-out: IC50_Mean;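 further: Wnt-LIGHT reporter cells stimulated with conditioned medium from Wnt3a-producing cells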
Sequence of Protein Wnt-3a (P27467 whole entry): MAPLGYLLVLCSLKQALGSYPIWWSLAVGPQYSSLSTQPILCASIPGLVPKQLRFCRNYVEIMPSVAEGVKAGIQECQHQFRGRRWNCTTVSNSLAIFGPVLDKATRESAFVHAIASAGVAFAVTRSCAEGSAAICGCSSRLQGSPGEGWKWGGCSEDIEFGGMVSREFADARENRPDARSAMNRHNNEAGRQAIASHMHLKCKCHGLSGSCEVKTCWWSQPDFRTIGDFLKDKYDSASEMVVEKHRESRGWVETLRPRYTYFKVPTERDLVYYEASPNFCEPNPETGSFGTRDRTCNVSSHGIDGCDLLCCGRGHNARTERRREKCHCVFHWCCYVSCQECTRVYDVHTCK

[13] = HEK-293T viability loss after treatment – luminescence, T-cell screen hits, cytotoxicity control for TCR NF-kB inhibitor project, dose response (AID 489026); format: functional, cell-based;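 further: cells exposed to compound about 14 hours before the viability readout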
[14] = alpha-synuclein stem-loop luciferase translation blockers – H4 neuroglioma cells, luminescence, confirmation (AID 1988); format: functional, cell-based
[15] = biological target: T5, Heat shock factor protein 1 (Mus musculus, UniProt P38532); test: decrease of HSF1-responsive luciferase luminescence – cell-based, NIH3T3, dose retest, confirmation (AID 2382); format: functional;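 further: NIH3T3 fibroblasts with HSF1-driven luciferase reporter stressed by proteasome inhibitor MG132; luminescence from HSF1-driven luciferase expression after 8 hours of MG132 stress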
T5 sequence (P38532 whole entry): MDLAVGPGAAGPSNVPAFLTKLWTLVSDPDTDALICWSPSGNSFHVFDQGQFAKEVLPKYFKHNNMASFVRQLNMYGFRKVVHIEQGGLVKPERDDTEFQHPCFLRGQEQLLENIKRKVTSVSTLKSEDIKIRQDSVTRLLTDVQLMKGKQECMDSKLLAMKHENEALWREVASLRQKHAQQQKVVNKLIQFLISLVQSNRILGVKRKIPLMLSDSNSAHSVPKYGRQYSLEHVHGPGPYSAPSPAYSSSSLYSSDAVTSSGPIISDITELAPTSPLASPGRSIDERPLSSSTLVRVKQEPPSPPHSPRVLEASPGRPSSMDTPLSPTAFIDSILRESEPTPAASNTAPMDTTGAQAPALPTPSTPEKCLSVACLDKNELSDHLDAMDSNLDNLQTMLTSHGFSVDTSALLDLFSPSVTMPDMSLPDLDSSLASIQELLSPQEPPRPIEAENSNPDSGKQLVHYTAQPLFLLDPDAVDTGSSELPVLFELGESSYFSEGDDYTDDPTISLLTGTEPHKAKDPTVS

[16] = Luminescence Cell-Based Dose Response HTS to Identify Inhibitors of 5'UTR Stem-Loop Driven Prion Protein mRNA Translation in H4 Neuroglioblastoma Cells. [Related pubchem assays: 1827 (Project Summary), 1813 (Primary HTS)]; format: functional
[17] = luciferase reporter signal suppression in cells – H4 neuroglioma cells, luminescence, dose response (AID 1990); format: functional, cell-based

| SMILES | AC50 [2] | AC50 [3] | AC50 [4] | AC50 [5] | also measured |
| --- | --- | --- | --- | --- | --- |
| COC(=O)[C@@]1(C)[C@H]2C(=O)N(Cc3ccccc3)C(=O)[C@H]2[C@H]2CN=C(SCc3ccc(Cl)cc3)N21 | 876 nM (active) | 0.796 µM (active) | 891 nM (active) | 1.04 µM (active) | AC50 [1]: 4.73 µM (active) |
| CCCCn1c(N)c(N(CC(C)C)C(=O)c2ccc(S(=O)(=O)N(CC)c3ccccc3)cc2)c(=O)[nH]c1=O | 402 nM (active) | 2.78 µM (active) | < 260 nM (active) | 0.877 µM (active) |  |
| CC(=O)NS(=O)(=O)c1ccc(/N=c2\ssc3c2-c2ccc(C)cc2NC3(C)C)cc1 |  |  |  |  | IC50 [6]: 2.6 µM (active); IC50 [7]: 89.3 µM (active); EC50 [8]: 12.1 µM (active); EC50 [9]: > 150 µM (not active); AC50 [10]: > 100 µM (inactive); EC50 [11]: 2.31 µM (active) |
| Cc1nc2ccccc2c2c1CC(C(C)(Cl)Br)O2 (stereo unspecified) | 27600 nM (active) | 1.8 µM (active) |  | > 70 µM (inactive) | IC50 [12]: 3.82 µM (active); IC50 [13]: > 80 µM (inactive) |
| NC(=O)c1sc2nc3c(c(-c4cccs4)c2c1N)CCCCC3 | 743 nM (active) | 1.43 µM (active) | < 260 nM (active) | 1.67 µM (active) | EC50 [14]: 11.1 µM (active); EC50 [15]: 285 nM (active); AC50 [1]: 2.27 µM (active); EC50 [16]: 9.4 µM (active); EC50 [17]: 16.5 µM (active) |
| Cc1n[nH]c(C)c1S(=O)(=O)N(CC(=O)NC1CCCC1)c1ccc(C(C)C)cc1 | 3910 nM (active) | 3.53 µM (active) | 2380 nM (active) | 6.27 µM (active) |  |
| COc1cccc(/C=N/NC(=O)CC2C(=O)NN=C2C)c1O (stereo unspecified) | 49900 nM (active) |  |  | > 70 µM (inactive) | IC50 [6]: 92.1 µM (active) |
